# Test results reported in patent US6642271B2, “Potentiating compounds” (Ardenia Investments, Ltd., priority 2001, dated 2003).
# Experiments:
# [1] = tested on: human breast adenocarcinoma MDA-MB-231 cell line; assay: Cytotoxicity: cell growth inhibition in cultures, viable cells counted by trypan blue exclusion; type: cell-based; settings: for inhibition at 0.04 µM / inhibition at 1 µM / inhibition at 0.1 µM / inhibition at 0.01 µM / inhibition at 0.001 µM / inhibition at 0.0001 µM / inhibition at 10 pM: Homo sapiens; for Cell growth inhibition % Formulation: compound/paclitaxel formulations in saline; for Cell growth inhibition % OF W/SAB / Cell growth inhibition % OF SAB/W: dried compound/paclitaxel mixed-micellar system (OF); for Cell growth inhibition % OF W/SAB: freeze-dried as water solution, reconstituted with 0.05 M sodium acetate buffer; for Cell growth inhibition % OF SAB/W: freeze-dried in 0.05 M sodium acetate buffer, reconstituted with water
# Method: The cell line was propagated by cultivation in Nunclon 25 cm^2 flasks (Nunc A/S, Denmark) in Minimum Essential Medium Eagle (MEM), containing antibiotics and supplemented with 10% (v/v) fetal bovine serum (FBS) (Sigma, St. Louis, Mo., USA). The cultures were maintained in growth medium at 37° C. in a humidified atmosphere, 95% air and 5% CO2.
# A suspension of tumour cells (60×10^3 cells/mL) was prepared in MEM with 5% FBS and antibiotics. Cell suspension (200 μL) was seeded in wells of Nunclon 96-microwell plates (Nunc A/S, Denmark) at a density of 12×10^3 cell/well. The solutions of the drugs to be tested were added to the cultures on day 0 or day 1 in volumes of 2 μL. In all cases the cells were incubated for 3 days.
# At the end of the incubation period, adherent cells were detached by trypsinization and the number of viable cells was counted using trypan blue dye exclusion test and a hemocytometer.
# All experiments were performed at least twice and the cells counts were done in triplicate for each drug concentration. Each control and test series consisted of 6-8 cultures. The results are expressed as mean cell number ±SD and the differences between control and test series were evaluated by means of Student's t-test. The cytotoxicity of each tested drug was evaluated by the extent of cell growth inhibition. The Cell growth inhibition was evaluated as follows:
# Cell growth inhibition, %=- - - ×100
# [2] = Solubility of compounds and formulations; type: physicochemical; settings: for solubility in solvents: sodium salts
# Method: The obtained solution can be stored for at least three months at low temperatures, without noticeable change in the properties of compound (I-VI). Moreover, the formulation retains its cytotoxic effects during prolonged storage. Before use, the solution is evaporated in vacuo to yield a waxy solid which is dissolved in saline or other commonly used vehicle for intravenous infusion to a patient. […] An ethanol solution is prepared of one of N-(all-trans-Retinoyl)-L-cysteic acid (I), N-(13-cis-Retinoyl)-L-cysteic acid (11), N-(all-trans-Retinoyl)-L-homocysteic acid (III), N-(13-cis-Retinoyl)-L-homocysteic acid (IV), N-(all-trans-Retinoyl)-L-cysteinesulfinic acid (V), or N-(13-cis-Retinoyl)-L-cysteinesulfinic acid (VI). The obtained solution is evaporated in vacuo to give waxy solid, whereupon Taxol® is added, dissolving the waxy solid. […]
# [3] = MDA-MB-231, compound alone 4 × 10^−8 mol/L (40 nM), added day 0, three days
# [4] = MDA-MB-231, dry substance, stock 1 mg/ml in saline, final 4 × 10^−8 mol/L, day 1, three days
# [5] = MDA-MB-231, dry substance, stock 1 mg/ml in saline, final 10^−6 mol/L, day 1, three days
# [6] = MDA-MB-231, dry substance, stock 1 mg/ml in saline, final 10^−7 mol/L, day 1, three days
# [7] = MDA-MB-231, dry substance, stock 1 mg/ml in saline, final 10^−8 mol/L, day 1, three days
# [8] = MDA-MB-231, dry substance, stock 1 mg/ml in saline, final 10^−9 mol/L, day 1, three days
# [9] = MDA-MB-231, dry substance, stock 1 mg/ml in saline, final 10^−10 mol/L, day 1, three days
# [10] = MDA-MB-231, dry substance, stock 1 mg/ml in saline, final concentration 10^−11 mol/L, day 1, three days
# [11] = MDA-MB-231, sodium salt in saline, final 4 × 10^−8 mol/L, day 1, three days
# [12] = MDA-MB-231, sodium salt in saline, final 10^−6 mol/L (top of range 10^−11 M to 10^−6 M), day 1, three days
# [13] = MDA-MB-231, sodium salt in saline, final 10^−7 mol/L, day 1, three days
# [14] = MDA-MB-231, sodium salt in saline, final 10^−8 mol/L, day 1, three days
# [15] = MDA-MB-231, sodium salt in saline, final 10^−9 mol/L, day 1, three days
# [16] = MDA-MB-231, sodium salt in saline, final 10^−10 mol/L, day 1, three days
# [17] = MDA-MB-231, sodium salt of the compound dissolved in saline (1 mg/ml), final concentration 10^−11 mol/L, day 1, three days
# [18] = compound alone 4 × 10^−8 mol/L (40 nM), added day 0, three days, 0.04 µM
# [19] = compound alone 4 × 10^−8 mol/L, added day 0, three days
# [20] = dry substance, stock 1 mg/ml in saline, final 4 × 10^−8 mol/L, day 1, three days
# [21] = dry substance, stock 1 mg/ml in saline, final 10^−6 mol/L, day 1, three days
# [22] = dry substance, stock 1 mg/ml in saline, final 10^−7 mol/L, day 1, three days
# [23] = dry substance, stock 1 mg/ml in saline, final 10^−8 mol/L, day 1, three days
# [24] = dry substance, stock 1 mg/ml in saline, final 10^−9 mol/L, day 1, three days
# [25] = dry substance, stock 1 mg/ml in saline, final 10^−10 mol/L, day 1, three days
# [26] = dry substance, stock 1 mg/ml in saline, final concentration 10^−11 mol/L, day 1, three days
# [27] = initial saline solution 0.005 mg/mL, final 40 nM in cultures, added day 1, three days of cultivation
# [28] = initial saline solution 0.05 mg/mL, final 40 nM, day 1, three days
# [29] = initial saline solution 0.5 mg/mL, final 40 nM, day 1, three days
# [30] = initial saline solution 1.0 mg/mL, final 40 nM, day 1, three days
# [31] = initial saline solution 5.0 mg/mL, final 40 nM, day 1, three days
# [32] = sodium salt in saline, final 4 × 10^−8 mol/L, day 1, three days
# [33] = sodium salt in saline, final 10^−6 mol/L (top of range 10^−11 M to 10^−6 M), day 1, three days
# [34] = sodium salt in saline, final 10^−6 mol/L, day 1, three days
# [35] = sodium salt in saline, final 10^−7 mol/L, day 1, three days
# [36] = sodium salt in saline, final 10^−8 mol/L, day 1, three days
# [37] = sodium salt in saline, final 10^−9 mol/L, day 1, three days
# [38] = sodium salt in saline, final 10^−10 mol/L, day 1, three days
# [39] = sodium salt of the compound dissolved in saline (1 mg/ml), final concentration 10^−11 mol/L, day 1, three days
smiles,measurement,setting,value
"CC1=C(/C=C/C(C)=C/C=C/C(C)=C/C(=O)N[C@@H](CS(=O)(=O)O)C(=O)O)C(C)(C)CCC1 [Compound I, N-(all-trans-Retinoyl)-L-cysteic acid]",inhibition at 0.04 µM,[1]; [3],39.6%
same,inhibition at 0.04 µM,[1]; [4],38.1%
same,inhibition at 1 µM,[1]; [5],42.1%
same,inhibition at 0.1 µM,[1]; [6],39.1%
same,inhibition at 0.01 µM,[1]; [7],29.9%
same,inhibition at 0.001 µM,[1]; [8],19.8%
same,inhibition at 0.0001 µM,[1]; [9],18.6%
same,inhibition at 10 pM,[1]; [10],27.3%
same,inhibition at 0.04 µM,[1]; [11],46.8%
same,inhibition at 1 µM,[1]; [12],49.7%
same,inhibition at 0.1 µM,[1]; [13],48%
same,inhibition at 0.01 µM,[1]; [14],46.2%
same,inhibition at 0.001 µM,[1]; [15],39.7%
same,inhibition at 0.0001 µM,[1]; [16],36.5%
same,inhibition at 10 pM,[1]; [17],28.6%
same,cell growth inhibition,[1]; [18],~40%
same,number of living cells,[1]; [19],16.3 ± 2.50 × 10^3
same,Cell growth inhibition % Formulation,[1],close to 75%
same,Cell growth inhibition % OF W/SAB,[1],close to 71%
same,Cell growth inhibition % OF SAB/W,[1],close to 72%
same,number of living cells,[1]; [20],30.9 ± 1.62 × 10^3
same,number of living cells,[1]; [21],28.9 ± 2.68 × 10^3
same,number of living cells,[1]; [22],30.4 ± 1.83 × 10^3
same,number of living cells,[1]; [23],35.0 ± 4.38 × 10^3
same,number of living cells,[1]; [24],40.0 ± 2.31 × 10^3
same,number of living cells,[1]; [25],40.6 ± 1.69 × 10^3
same,number of living cells,[1]; [26],36.3 ± 3.82 × 10^3
same,cell growth inhibition,[1]; [27],33.3%
same,number of living cells,[1]; [27],33.3 ± 2.55 × 10^3
same,cell growth inhibition,[1]; [28],32.1%
same,number of living cells,[1]; [28],33.9 ± 2.78 × 10^3
same,cell growth inhibition,[1]; [29],31.5%
same,number of living cells,[1]; [29],34.2 ± 5.09 × 10^3
same,cell growth inhibition,[1]; [30],38.3%
same,number of living cells,[1]; [30],30.8 ± 3.53 × 10^3
same,cell growth inhibition,[1]; [31],27.7%
same,number of living cells,[1]; [31],36.1 ± 4.10 × 10^3
same,number of living cells,[1]; [32],31.2 ± 1.72 × 10^3
same,cell growth inhibition,[1]; [33],~50%
same,number of living cells,[1]; [34],29.5 ± 1.36 × 10^3
same,number of living cells,[1]; [35],30.5 ± 0.89 × 10^3
same,number of living cells,[1]; [36],31.6 ± 1.69 × 10^3
same,number of living cells,[1]; [37],35.4 ± 2.23 × 10^3
same,number of living cells,[1]; [38],37.3 ± 2.84 × 10^3
same,number of living cells,[1]; [39],41.9 ± 2.17 × 10^3
same,solubility in the commercially available Taxol® preparation,[2],excellent solubility
same,solubility in solvents,[2],soluble only in mixtures containing water
"CC1=C(/C=C/C(C)=C/C=C/C(C)=C\C(=O)N[C@@H](CS(=O)(=O)O)C(=O)O)C(C)(C)CCC1 [Compound II, N-(13-cis-Retinoyl)-L-cysteic acid]",inhibition at 0.04 µM,[1]; [3],35.3%
same,inhibition at 0.04 µM,[1]; [4],36.8%
same,inhibition at 1 µM,[1]; [5],41.9%
same,inhibition at 0.1 µM,[1]; [6],38.4%
same,inhibition at 0.01 µM,[1]; [7],27.5%
same,inhibition at 0.001 µM,[1]; [8],21.5%
same,inhibition at 0.0001 µM,[1]; [9],17.8%
same,inhibition at 10 pM,[1]; [10],28.9%
same,inhibition at 0.04 µM,[1]; [11],46.8%
same,inhibition at 1 µM,[1]; [12],51.6%
same,inhibition at 0.1 µM,[1]; [13],46%
same,inhibition at 0.01 µM,[1]; [14],46.5%
same,inhibition at 0.001 µM,[1]; [15],41.2%
same,inhibition at 0.0001 µM,[1]; [16],35.1%
same,inhibition at 10 pM,[1]; [17],27.9%
same,cell growth inhibition,[1]; [18],~40%
same,number of living cells,[1]; [19],29.9 ± 2.38 × 10^3
same,Cell growth inhibition % Formulation,[1],close to 75%
same,Cell growth inhibition % OF W/SAB,[1],close to 71%
same,Cell growth inhibition % OF SAB/W,[1],close to 72%
same,number of living cells,[1]; [20],32.6 ± 2.52 × 10^3
same,number of living cells,[1]; [21],30.0 ± 2.14 × 10^3
same,number of living cells,[1]; [22],31.8 ± 2.05 × 10^3
same,number of living cells,[1]; [23],37.4 ± 3.86 × 10^3
same,number of living cells,[1]; [24],40.5 ± 2.11 × 10^3
same,number of living cells,[1]; [25],42.4 ± 1.93 × 10^3
same,number of living cells,[1]; [26],36.7 ± 3.65 × 10^3
same,cell growth inhibition,[1]; [27],32.6%
same,number of living cells,[1]; [27],34.8 ± 3.27 × 10^3
same,number of living cells,[1]; [28],33.4 ± 2.91 × 10^3
same,cell growth inhibition,[1]; [29],35.9%
same,number of living cells,[1]; [29],33.1 ± 3.01 × 10^3
same,cell growth inhibition,[1]; [30],37.6%
same,number of living cells,[1]; [30],32.2 ± 2.14 × 10^3
same,cell growth inhibition,[1]; [31],29.3%
same,number of living cells,[1]; [31],36.5 ± 3.88 × 10^3
same,number of living cells,[1]; [32],31.2 ± 2.33 × 10^3
same,cell growth inhibition,[1]; [33],~50%
same,number of living cells,[1]; [34],28.4 ± 1.02 × 10^3
same,number of living cells,[1]; [35],31.7 ± 1.54 × 10^3
same,number of living cells,[1]; [36],31.4 ± 1.62 × 10^3
same,number of living cells,[1]; [37],34.5 ± 1.94 × 10^3
same,number of living cells,[1]; [38],38.1 ± 1.18 × 10^3
same,number of living cells,[1]; [39],42.3 ± 2.32 × 10^3
same,solubility in the commercially available Taxol® preparation,[2],excellent solubility
same,solubility in solvents,[2],soluble only in mixtures containing water
